The text below walks through data of PubChem BioAssay AID1208 (EPA DSSTox, 2008).

The structures appear in SMILES notation. Calls of active or inactive are those of the source.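 Rule for the calls: active = at least one rat sex group has a carcinogenic potency value and tumor site recorded; inconclusive = only rat studies were judged inadequate by the national testing program; inactive = no potency or tumor site, with negative rat experiments.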

The test system of this series is rat chronic carcinogenicity bioassay, TD50. In words: DSSTox (CPDBAS) Carcinogenic Potency Database Summary Rat Bioassay Results. The settings on record: for Potency: active compounds read low. In outline: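 Chronic long-term rat cancer bioassays from literature and NCI/NTP, taking the most positive result per sex. TD50 in mmol converted to a 1–100 Activity Score from log10(1/TD50). Mixtures lacking TD50 scored 50.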

The mark [1] stands for this setting: TD50_Rat_Note: no positive results.
The mark [2] stands for this setting: TD50_Rat_Note: no positive results, TargetSites_Rat_Female: no positive results.
Setting [3] is: TargetSites_Rat_Female: no positive results.

Consider `NC(=O)N/N=C/c1ccc([N+](=O)[O-])o1`, for which, where the note is “TD50_Rat_Note: TD50 is harmonic mean of more than one positive test, harmonic mean of TD50 includes a value for upper 99% confidence li, TargetSites_Rat_Female: mammary gland”, the Potency was 6.98 mg/kg/day. In the case of `CC(C)CN(N=O)C(=N)N[N+](=O)[O-]`, the outcome under setting [1] was “inactive; no positive results”. As to `CN=[N+](C)[O-]`, the Potency (TD50_Rat_Note: TD50 is harmonic mean of more than one positive test) is 0.0466 mg/kg/day. Take `CCCCN(N=O)C(=N)N[N+](=O)[O-]`: under setting [1], the outcome was “inactive; no positive results”. Regarding `CC(C(O)c1ccccc1)N(C)N=O` (stereo unspecified), the Potency was 95.2 mg/kg/day. For `CC(O)CN(CC(C)O)CC(C)O` (stereo unspecified), under setting [1], the outcome is “inactive; no positive results”. `CC(C)(C)c1cc(CO)cc(C(C)(C)C)c1O`: under setting [2], the outcome was “inactive; no positive results”. Consider `O=C(Nc1nc(-c2ccc([N+](=O)[O-])o2)cs1)C(F)(F)F`, for which, for the setting “TargetSites_Rat_Female: mammary gland”, the Potency was 6.79 mg/kg/day.

Consider `O=c1[nH]c(=O)n(C2CCCO2)cc1F` (stereo unspecified), for which the outcome under setting [2] was “inactive; no positive results”. For `[O]=[Mo](=[O])=[O]`, the outcome under setting [2] was “inactive; no positive results”. Regarding `C=CCOCC1CO1` (stereo unspecified), under setting [2], the outcome is “inactive; no positive results”. In the case of `CCCCCC(N)=O`, the outcome under setting [2] was “inactive; no positive results”.

For `Cc1ccc(C)c(OCCCC(C)(C)C(=O)O)c1`, under setting [2], the Potency was 247 mg/kg/day. Regarding `C=CCc1ccc2c(c1)OCO2`, under “TD50_Rat_Note: TD50 is harmonic mean of more than one positive test, TargetSites_Rat_BothSexes: liver”, the Potency was 441 mg/kg/day. As to `CNC(=O)Oc1cc(C)c(N(C)C)c(C)c1`, the outcome under setting [2] is “inactive; no positive results”.

For the compound `CN(C)Nc1nc(-c2ccc([N+](=O)[O-])o2)cs1`, the Potency (TD50_Rat_Note: harmonic mean of TD50 includes a value for upper 99% confidence limit from study with 100% tumor incidence but no lifeta, TargetSites_Rat_Female: hematopoietic system, mammary gland) is 0.41 mg/kg/day.

`CC(C)CN(N=O)C(N)=O`: the Potency (TargetSites_Rat_Female: small intestine) was 4.73 mg/kg/day. Take `O=S(=O)(O)O`: the Potency (TD50_Rat_Note: TD50 is harmonic mean of more than one positive test, TargetSites_Rat_Female: lung) is 40.8 mg/kg/day. On to `CO[C@H]1/C=C/O[C@@]2(C)Oc3c(C)c(O)c4c(O)c(c(/C=N/N5CCN(C)CC5)c(O)c4c3C2=O)NC(=O)/C(C)=C\C=C\[C@H](C)[C@H](O)[C@@H](C)[C@@H](O)[C@@H](C)[C@H](OC(C)=O)[C@@H]1C`, for which the outcome under setting [2] was “inactive; no positive results”. For the compound `CCCCCN(N=O)C(=O)OCC`, where the note is “TargetSites_Rat_Female: esophagus, oral cavity”, the Potency was 1.01 mg/kg/day. In the case of `CC(=O)NCc1nc(-c2ccc([N+](=O)[O-])o2)no1`, under “TD50_Rat_Note: no positive results are statistically significant, TargetSites_Rat_Female: kidney, lung”, the Potency is 59.6 mg/kg/day. In the case of `COCCl`, the Potency was 5.5 mg/kg/day. As for `ClC=C(Cl)Cl`, the Potency (TD50_Rat_Note: TD50 is harmonic mean of more than one positive test, TargetSites_Rat_Female: no positive results) is 668 mg/kg/day. Further, the outcome under setting [2] was “inactive; no positive results”. Take `CN(C)N=Nc1ccccc1`: the Potency (TargetSites_Rat_BothSexes: nervous system) was 2.31 mg/kg/day. As to `O=[N+]([O-])c1ccc(-c2cnc3ccccn23)o1`, the Potency (TD50_Rat_Note: TD50 is harmonic mean of more than one positive test, TargetSites_Rat_Female: esophagus, kidney, mammary gland, stomach) was 13.6 mg/kg/day. With `O=C1O[C@H]([C@@H](O)CO)C(O)=C1O`, the outcome under setting [2] is “inactive; no positive results”. With `CN(C)NC(=O)CCC(=O)O`, where the note is “TD50_Rat_Note: no positive results are statistically significant, TargetSites_Rat_Female: uterus”, the Potency was 2500 mg/kg/day. Take `Cc1ccc(C)c(C)c1`: the Potency under setting [3] was 4350 mg/kg/day. As for `Cc1ccccc1N`, the Potency (TD50_Rat_Note: TD50 is harmonic mean of more than one positive test, TargetSites_Rat_Female: bone, mammary gland, urinary bladder, vascular system) was 43.6 mg/kg/day. As to `S=C=NCCCCCCc1ccccc1`, under setting [1], the outcome was “inactive; no positive results”. For the compound `N#CSCc1ccccc1`, the outcome under setting [1] is “inactive; no positive results”. For `O=C1C2CC=CCC2C(=O)N1SC(Cl)(Cl)Cl` (stereo unspecified), the Potency (TD50_Rat_Note: TD50 is harmonic mean of more than one positive test, TargetSites_Rat_Female: uterus) was 2080 mg/kg/day.

Turning to `Cc1cc(C)c(N)cc1C`, the Potency is 33.6 mg/kg/day (TD50_Rat_Note: TD50 is harmonic mean of more than one positive test, TargetSites_Rat_Female: liver, lung) and 98.5 mg/kg/day (TD50_Rat_Note: no positive results are statistically significant). Consider `CC1(C)C(=O)Nc2ccc(C3=NNC(=O)CC3)cc21`, for which the Potency (TD50_Rat_Note: TD50 is harmonic mean of more than one positive test, TargetSites_Rat_Female: adrenal gland) was 2.01 mg/kg/day. In the case of `Cc1ccc2ncccc2c1`, the outcome under setting [2] is “inactive; no positive results”. Consider `O=C1CN(/N=C/c2ccc([N+](=O)[O-])o2)C(=O)N1`, for which the Potency under setting [3] is 163 mg/kg/day.

On to `NNc1nc(-c2ccc([N+](=O)[O-])o2)cs1`, for which the Potency (TD50_Rat_Note: TD50 is harmonic mean of more than one positive test, TargetSites_Rat_Female: kidney, mammary gland) is 3.19 mg/kg/day. Consider `C[C@@H]1C[C@H](C)CN(S(=O)(=O)c2ccc(Cl)c(C(=O)O)c2)C1`, for which the Potency was 4.85 mg/kg/day.

Turning to `COc1ccc(O)c(C(C)(C)C)c1`, where the note is “TD50_Rat_Note: TD50 is harmonic mean of more than one positive test, harmonic mean of TD50 includes a value for upper 99% confidence li, TargetSites_Rat_Female: stomach”, the Potency was 405 mg/kg/day. Regarding `Cc1ccc(S(=O)(=O)OCCN(C)N=O)cc1`, the Potency (TD50_Rat_Note: TD50 is harmonic mean of more than one positive test, TargetSites_Rat_Female: liver, vascular system) was 4.8 mg/kg/day.

With `C/C=C/C=C/C(=O)O`, under setting [2], the outcome was “inactive; no positive results”. For `O=C1O[C@@H](CN2CCOCC2)CN1/N=C/c1ccc([N+](=O)[O-])o1`, the Potency (TargetSites_Rat_Female: hematopoietic system, kidney, mammary gland) was 6.33 mg/kg/day. Take `OCCOCCO`: the Potency under setting [3] is 1660 mg/kg/day. Regarding `O=NN(CCO)CCO`, the Potency (TD50_Rat_Note: TD50 is harmonic mean of more than one positive test, greater than ten-fold variation among TD50 values for positive res, TargetSites_Rat_Female: esophagus, kidney, liver, nasal cavity) was 3.17 mg/kg/day.
